Experimental data from US12441768B2, “Compositions and methods for treating endometriosis” (EndoMet Biosciences, Inc., priority 2018, dated 2025).
Where a SMILES comes first, the peptide text is derived from it. The star is where a group is joined. Bn = c1ccc(C*)cc1

Key:
β-catenin = biological target: T1, β-catenin (Homo sapiens, UniProt P35222); assay: KD50 measurement using competitive fluorescence polarization (FP) with labelled TCF4; assay type: binding; conditions: fluorescence polarization, β-catenin; for Kd: read-out: β-Cat FP KD
T1 sequence (P35222 1-781): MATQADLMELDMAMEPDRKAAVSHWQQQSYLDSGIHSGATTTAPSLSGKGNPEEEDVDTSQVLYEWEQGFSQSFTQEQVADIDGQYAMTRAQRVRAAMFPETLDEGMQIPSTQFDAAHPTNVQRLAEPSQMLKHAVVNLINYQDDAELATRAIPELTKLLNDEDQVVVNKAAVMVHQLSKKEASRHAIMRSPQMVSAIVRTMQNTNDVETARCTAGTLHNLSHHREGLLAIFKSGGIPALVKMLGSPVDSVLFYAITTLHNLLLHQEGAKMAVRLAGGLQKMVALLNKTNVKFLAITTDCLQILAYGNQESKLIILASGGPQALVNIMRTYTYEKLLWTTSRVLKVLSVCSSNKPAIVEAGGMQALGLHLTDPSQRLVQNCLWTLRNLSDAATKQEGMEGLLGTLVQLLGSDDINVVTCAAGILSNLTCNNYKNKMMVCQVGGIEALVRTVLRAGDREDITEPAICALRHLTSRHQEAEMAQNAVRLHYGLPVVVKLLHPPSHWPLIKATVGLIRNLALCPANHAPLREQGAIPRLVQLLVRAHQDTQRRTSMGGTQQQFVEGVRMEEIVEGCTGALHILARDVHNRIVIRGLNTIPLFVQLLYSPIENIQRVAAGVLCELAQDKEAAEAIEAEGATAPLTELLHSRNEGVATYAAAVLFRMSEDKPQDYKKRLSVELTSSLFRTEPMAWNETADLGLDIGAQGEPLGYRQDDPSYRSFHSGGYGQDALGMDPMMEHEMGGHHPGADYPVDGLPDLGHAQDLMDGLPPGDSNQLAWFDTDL
Method in brief: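 Labelled TCF4 (5 nM) mixed with 100 nM β-catenin at room temperature; inhibitor added as serial dilutions from 10 nM to 30 uM. Polarization read at excitation 470 nm/emission 520 nm; binding displacement lowers polarization. Three independent runs.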

[1] = % Viability non-Wnt responsive cells
[2] = biological target: Wnt-responsive promoter (TCF/LEF); assay: Wnt-dependent luciferase reporter assay; assay type: cell-based, murine
Method in brief: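 EC50 (uM) derived from inhibition of luminescence in Wnt3a-stimulated murine 3T3 cells expressing luciferase under a TCF/LEF promoter, with peptides added across a concentration range and vehicle as control.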

CC[C@H](C)[C@H](NC(=O)[C@H](CC(C)C)NC(=O)[C@H](Cc1ccccc1)NC(=O)[C@@H](N)Cc1c[nH]c2ccccc12)C(=O)N[C@@H](CO)C(=O)N[C@@H](Cc1ccccc1)C(=O)N[C@@H](Cc1c[nH]c2ccccc12)C(N)=O [compound 98] (H-WFLISFW-NH2)
β-Cat FP Hill slope (β-catenin): 1.02
Kd (β-catenin): 1 to 10 µM
viability [1]: 96%
EC50 [2]: > 30 µM

CC[C@H](C)[C@H](NC(=O)[C@H](CC(C)C)NC(=O)[C@H](Cc1ccccc1)NC(=O)[C@H](Cc1c[nH]c2ccccc12)NC(=O)[C@H](CCSC)NC(=O)[C@H](CCCNC(=N)N)NC(=O)[C@H](CO)NC(=O)[C@@H](N)CCSC)C(=O)N[C@@H](CO)C(=O)N[C@@H](CO)C(=O)N[C@@H](Cc1c[nH]c2ccccc12)C(=O)O [compound 99] (H-MSRMWFLISSW-OH)
β-Cat FP Hill slope (β-catenin): 0.7
Kd (β-catenin): 1 to 10 µM
viability [1]: 97.3%
EC50 [2]: 22.5 to 30 µM

CC[C@H](C)[C@H](NC(=O)[C@H](CC(C)C)NC(=O)[C@H](Cc1ccccc1)NC(=O)[C@@H](N)Cc1c[nH]c2ccccc12)C(=O)N[C@H](C(=O)N[C@H](C(=O)N[C@@H](Cc1c[nH]c2ccccc12)C(=O)O)[C@@H](C)O)[C@@H](C)O [compound 100] (H-WFLITTW-OH)
β-Cat FP Hill slope (β-catenin): 2.8
Kd (β-catenin): 1 to 10 µM
viability [1]: 102%
EC50 [2]: 7.5 to 15 µM

CC[C@H](C)[C@H](NC(=O)[C@H](CC(C)C)NC(=O)[C@H](Cc1ccccc1)NC(=O)[C@@H](N)Cc1c[nH]c2ccccc12)C(=O)N[C@@H](CO)C(=O)N[C@@H](COCc1ccccc1)C(=O)N[C@@H](Cc1c[nH]c2ccccc12)C(=O)O [compound 101] (H-WFLISS(Bn)W-OH)
β-Cat FP Hill slope (β-catenin): 3
Kd (β-catenin): 1 to 10 µM
viability [1]: 106%
EC50 [2]: 7.5 to 15 µM

CC[C@H](C)[C@H](NC(=O)[C@H](CC(C)C)NC(=O)[C@H](Cc1ccccc1)NC(=O)[C@H](Cc1c[nH]c2ccccc12)NC)C(=O)N[C@@H](CO)C(=O)N[C@@H](Cc1ccccc1)C(=O)N[C@@H](Cc1c[nH]c2ccccc12)C(N)=O [compound 102] (HELM PEPTIDE1{[meW].F.L.I.S.F.W.[am]}$$$$V2.0)
β-Cat FP Hill slope (β-catenin): 0.7
Kd (β-catenin): < 0.4 µM
viability [1]: 101%
EC50 [2]: 15 to 22.5 µM

CC[C@H](C)[C@H](NC(=O)[C@H](CC(C)C)NC(=O)[C@H](Cc1ccccc1)NC(=O)[C@@H](N)Cc1c[nH]c2ccccc12)C(=O)N[C@@H](CO)C(=O)N[C@H](C(=O)N[C@@H](Cc1c[nH]c2ccccc12)C(=O)O)[C@@H](C)O [compound 103] (H-WFLISTW-OH)
β-Cat FP Hill slope (β-catenin): 1.71
Kd (β-catenin): 1 to 10 µM
viability [1]: 102%
EC50 [2]: 15 to 22.5 µM

CCOC[C@H](NC(=O)[C@H](CO)NC(=O)[C@@H](NC(=O)[C@H](CC(C)C)NC(=O)[C@H](Cc1ccccc1)NC(=O)[C@@H](N)Cc1c[nH]c2ccccc12)[C@@H](C)CC)C(=O)N[C@@H](Cc1c[nH]c2ccccc12)C(=O)O [compound 104] (H-WFLISS(Et)W-OH)
β-Cat FP Hill slope (β-catenin): 3
Kd (β-catenin): 1 to 10 µM
viability [1]: 104%
EC50 [2]: 7.5 to 15 µM

CCOC[C@H](NC(=O)[C@H](CO)NC(=O)[C@@H](NC(=O)[C@H](CC(C)C)NC(=O)[C@H](Cc1ccccc1)NC(=O)[C@H](Cc1c[nH]c2ccccc12)NC(=O)[C@H](CCSC)NC(=O)[C@H](CCCNC(=N)N)NC(=O)[C@H](CO)NC(=O)[C@@H](N)CCSC)[C@@H](C)CC)C(=O)N[C@@H](Cc1c[nH]c2ccccc12)C(=O)O [compound 105] (H-MSRMWFLISS(Et)W-OH)
β-Cat FP Hill slope (β-catenin): 0.7
Kd (β-catenin): 1 to 10 µM
viability [1]: 96.8%
EC50 [2]: 7.5 to 15 µM

CC[C@H](C)[C@H](NC(=O)[C@H](CC(C)C)NC(=O)[C@H](Cc1ccccc1)NC(=O)[C@H](Cc1c[nH]c2ccccc12)NC(=O)[C@H](CCSC)NC(=O)[C@H](CCCNC(=N)N)NC(=O)[C@H](CO)NC(=O)[C@@H](N)CCSC)C(=O)N[C@@H](CO)C(=O)N[C@@H](COCc1ccccc1)C(=O)N[C@@H](Cc1c[nH]c2ccccc12)C(=O)O [compound 106] (H-MSRMWFLISS(Bn)W-OH)
β-Cat FP Hill slope (β-catenin): 0.7
Kd (β-catenin): 1 to 10 µM
viability [1]: 105%
EC50 [2]: 15 to 22.5 µM

CC[C@H](C)[C@H](NC(=O)[C@H](CC(C)C)NC(=O)[C@H](Cc1ccccc1)NC(=O)[C@H](Cc1c[nH]c2ccccc12)NC(=O)[C@@H](N)CCSC)C(=O)N[C@@H](CO)C(=O)N[C@@H](Cc1ccccc1)C(=O)N[C@@H](Cc1c[nH]c2ccccc12)C(N)=O [compound 107] (H-MWFLISFW-NH2)
β-Cat FP Hill slope (β-catenin): 0.7
Kd (β-catenin): 1 to 10 µM
viability [1]: 100%
EC50 [2]: 7.5 to 15 µM

CC[C@H](C)[C@H](NC(=O)[C@H](CC(C)C)NC(=O)[C@H](Cc1ccccc1)NC(=O)[C@H](Cc1c[nH]c2ccccc12)NC(=O)[C@@H](N)CCSC)C(=O)N[C@@H](CO)C(=O)N[C@@H](Cc1ccccc1)C(=O)N[C@@H](Cc1c[nH]c2ccccc12)C(=O)NCC(N)=O [compound 108] (H-MWFLISFWG-NH2)
β-Cat FP Hill slope (β-catenin): 0.7
Kd (β-catenin): 0.4 to 1 µM
viability [1]: 102%
EC50 [2]: 7.5 to 15 µM

CC[C@H](C)[C@H](NC(=O)[C@H](CC(C)C)NC(=O)[C@H](Cc1ccccc1)NC(=O)[C@@H](N)Cc1c[nH]c2ccccc12)C(=O)N[C@@H](CO)C(=O)N[C@@H](Cc1ccc(O)cc1)C(=O)N[C@@H](Cc1c[nH]c2ccccc12)C(=O)O [compound 109] (H-WFLISYW-OH)
β-Cat FP Hill slope (β-catenin): 3
Kd (β-catenin): 1 to 10 µM
viability [1]: 103%
EC50 [2]: 7.5 to 15 µM

CC[C@H](C)[C@H](NC(=O)[C@H](CC(C)C)NC(=O)[C@H](Cc1ccccc1)NC(=O)[C@@H](N)Cc1c[nH]c2ccccc12)C(=O)N[C@@H](CO)C(=O)N[C@@H](Cc1ccccc1)C(=O)N[C@@H](Cc1c[nH]c2ccccc12)C(=O)O [compound 110] (H-WFLISFW-OH)
β-Cat FP Hill slope (β-catenin): 3
Kd (β-catenin): 1 to 10 µM
viability [1]: 103%
EC50 [2]: 7.5 to 15 µM

CC[C@H](C)[C@H](NC(=O)[C@H](CC(C)C)NC(=O)[C@H](Cc1ccccc1)NC(=O)[C@H](Cc1c[nH]c2ccccc12)NC)C(=O)N[C@@H](CO)C(=O)N[C@@H](Cc1ccccc1)C(=O)N[C@@H](Cc1c[nH]c2ccccc12)C(=O)O [compound 111] (HELM PEPTIDE1{[meW].F.L.I.S.F.W}$$$$V2.0)
β-Cat FP Hill slope (β-catenin): 2.06
Kd (β-catenin): 0.4 to 1 µM
viability [1]: 99.8%
EC50 [2]: 7.5 to 15 µM

CC[C@H](C)[C@H](NC(=O)[C@H](CC(C)C)NC(=O)[C@H](Cc1ccccc1)NC(=O)[C@H](Cc1c[nH]c2ccccc12)NC(=O)[C@@H](N)CCSC)C(=O)N[C@@H](CO)C(=O)N[C@@H](Cc1ccccc1)C(=O)N[C@@H](Cc1c[nH]c2ccccc12)C(=O)O [compound 112] (H-MWFLISFW-OH)
β-Cat FP Hill slope (β-catenin): 1.82
Kd (β-catenin): 0.4 to 1 µM
viability [1]: 103%
EC50 [2]: < 7.5 µM

CC[C@H](C)[C@H](NC(=O)[C@H](CC(C)C)NC(=O)[C@@H](NC(=O)[C@H](Cc1c[nH]c2ccccc12)NC(=O)[C@H](CCSC)NC(=O)[C@@H](N)CCCCN)[C@@H](C)CC)C(=O)N[C@@H](CS)C(=O)N[C@@H](Cc1ccccc1)C(=O)N[C@@H](Cc1c[nH]c2ccccc12)C(=O)NCC(=O)O [compound 113] (H-KMWILICFWG-OH)
β-Cat FP Hill slope (β-catenin): 0.7
Kd (β-catenin): 1 to 10 µM
viability [1]: 102%
EC50 [2]: > 30 µM

CC[C@H](C)[C@H](NC(=O)[C@H](CC(C)C)NC(=O)[C@@H](NC(=O)[C@H](Cc1c[nH]c2ccccc12)NC(=O)[C@H](CCSC)NC(=O)[C@@H](N)Cc1c[nH]cn1)[C@@H](C)CC)C(=O)N[C@@H](CS)C(=O)N[C@@H](Cc1ccccc1)C(=O)N[C@@H](Cc1c[nH]c2ccccc12)C(=O)NCC(=O)O [compound 114] (H-HMWILICFWG-OH)
β-Cat FP Hill slope (β-catenin): 0.7
Kd (β-catenin): 1 to 10 µM
viability [1]: 123%
EC50 [2]: < 7.5 µM
